Reference: patent US11191291B2, “Compositions for taste masking” (International Flavors & Fragrances Inc., priority 2016, dated 2021)

Assay: Sensory panel ranking of lingering aftertaste masking on a 0-5 scale (Example III)
Type: in vivo
Conditions: for Masking Effect: scale of 0-5, 0=no masking, 5=very strong masking; for Taste compared with the control: αG SWEET 0.14% solution, water used in control group, concentration series
Experimental: A solution of αG SWEET was prepared in water at a concentration of 0.14%. The Emblica officinalis fruit extract (prepared as above in Example I) containing the mucic acid 2-O-gallate (11.84%) and mucic acid lactone gallate (6.35%) mixture, individual fractions containing each of mucic acid 2-O-gallate, mucic acid lactone gallate, galloyl glucose (prepared in Example I) and mucic acid 3-O-gallate (Quality Phytochemicals, LLC, New Jersey, U.S.) were added to the αG SWEET solution, respectively, to achieve a series of concentrations ranging from about 50-80 ppm for the Emblica officinalis fruit extract; about 5-20 ppm for mucic acid 2-O-gallate; about 5-20 ppm for mucic acid 3-O-gallate; about 2-10 ppm for mucic acid lactone gallate; and about 10-20 ppm for galloyl glucose. Water was used in a control group. Samples were presented in a blind and pseudorandom order to a sensory panel. The lingering aftertaste-masking effect was evaluated by ranking the suppression of bitterness, metallic aftertaste and lingering sweetness on a scale of 0-5, where 0=no masking and 5=very strong masking.

[1] = 20 ppm in αG SWEET 0.14% solution

Row | Compound | Masking Effect [1] | Taste compared with the control | Masking Effect (10 ppm in αG SWEET 0.14% solution)
1 | O=C(OC(C(O)C(=O)O)C(O)C(O)C(=O)O)c1cc(O)c(O)c(O)c1 (centres unmarked) [Mucic Acid 3-O-Gallate, mucic acid 3-O-gallate] | 1 | tasted considerably less bitter and the lingering metallic off-note was reduced | –
2 | O=C(OC(C(=O)O)C(O)C(O)C(O)C(=O)O)c1cc(O)c(O)c(O)c1 (centres unmarked) [Mucic acid 2-O-gallate, mucic acid 2-O-gallate] | 1 | tasted considerably less bitter and the lingering metallic off-note was reduced | –
3 | O=C(OC(C(=O)O)C1OC(=O)C(O)C1O)c1cc(O)c(O)c(O)c1 (centres unmarked) [Mucic acid lactone gallate, mucic acid lactone gallate] | – | tasted considerably less bitter and the lingering metallic off-note was reduced | 2
4 | galloyl glucose [reference compound] | 0 | very low effect | –
